Data published in patent publication US3950379A, “2-Cyano-diphenyl ethers” (Rohm and Haas Company, priority 1974, dated 1976).

Key:
Format in all cases: in vivo
Monocots [1] = experiment: Herbicidal activity, preemergence, monocot weeds in flats (% control); details: pre-emergence, 336 h, about 2 weeks after application, percent of plants killed; for activity at 11208.5 g/ha: monocots (4 species, average), 10 lb./A.; for activity at 2241.7 g/ha / activity at 4483.4 g/ha: monocots (10 species, average); for activity at 2241.7 g/ha: 2 lb./A.; for activity at 4483.4 g/ha: 4 lb./A.
Description: (§1) Using the procedure described below, diphenyl ethers were evaluated for control of the following weeds: At 10 pounds per acre: […]
(§2) barnyardgrass (Echinochloa crusgalli) crabgrass (Digitaria spp.) nutsedge (Cyperus esculentus)
(§3) At 2 and 4 pounds per acre: […]
(§4) downy brome (Bromus tectorum) foxtail (Setaria faberii)
(§5) Johnsongrass (Sorghum halepense) […]
(§6) quackgrass (Agropyron repens) ryegrass (Lolium perenne) […]
(§7) yellow millet (Panicum miliaceum)
(§8) The following test procedure is employed. Seeds of selected crops and weeds are planted in soil in flats. For preemergence tests, the flats are treated with the test compound immediately after the planting. For post-emergence tests, the seeds are allowed to germinate, and after 2 weeks the flats are treated with the test compound. The compound to be evaluated is dissolved in acetone, diluted with water, and sprayed over the flats using a carrier volume equivalent to 50 gallons per acre at the rate of application (pounds per acre, lb/A.) specified in the tables. About 2 weeks after the application of the test compound, the state of growth of the plant is observed and the phytotoxic effect of the compound is evaluated. Table II gives the average percent control achieved by the test compounds in terms of the percent of the plants which are killed by the compounds.

Dicots [2] = experiment: Herbicidal activity, postemergence, dicot weeds in flats (% control); details: post-emergence, 336 h, dicots (10 species, average), about 2 weeks after application, percent of plants killed; for activity at 2241.7 g/ha: 2 lb./A.; for activity at 4483.4 g/ha: 4 lb./A.
Dicots [3] = experiment: Herbicidal activity, preemergence, dicot weeds in flats (% control); details: pre-emergence, 336 h, dicots (10 species, average), about 2 weeks after application, percent of plants killed; for activity at 2241.7 g/ha: 2 lb./A.; for activity at 4483.4 g/ha: 4 lb./A.
Dicots [4] = experiment: as above; details: pre-emergence, 336 h, dicots (4 species, average), 10 lb./A., about 2 weeks after application, percent of plants killed
Description: as §1
(§9) bindweed (Convolvulus arvensis) curly dock (Rumex crispus) velvetleaf (Abutilon theophrasti) wild mustard (Brassica haber)
as §3
(§10) cocklebur (Xanthium pensylvanicum) […]
(§11) lambsquarters (Chenopodium album) morningglory (Ipomoea purpurea) pigweed (Amaranthus retroflexus) smartweed (Polygonum pensylvanicum) […]
(§12) wild carrot (Daucus carota)
as §8

Monocots [5] = experiment: Herbicidal activity, postemergence, monocot weeds in flats (% control); details: post-emergence, 336 h, about 2 weeks after application, percent of plants killed; for activity at 11208.5 g/ha: monocots (4 species, average), 10 lb./A.; for activity at 2241.7 g/ha / activity at 4483.4 g/ha: monocots (10 species, average); for activity at 2241.7 g/ha: 2 lb./A.; for activity at 4483.4 g/ha: 4 lb./A.
Description: as §1, §2, §3, §4, §5, §6, §7, §8

Dicots [6] = experiment: Herbicidal activity, postemergence, dicot weeds in flats (% control); details: post-emergence, 336 h, dicots (4 species, average), 10 lb./A., about 2 weeks after application, percent of plants killed
Description: as §1, §9, §3, §10, §11, §12, §8

SMILES	activity at 11208.5 g/ha (Monocots [1]) [%]	activity at 2241.7 g/ha (Monocots [1]) [%]	activity at 4483.4 g/ha (Monocots [1]) [%]	activity at 2241.7 g/ha (Dicots [2]) [%]	activity at 4483.4 g/ha (Dicots [2]) [%]	activity at 2241.7 g/ha (Dicots [3]) [%]	activity at 4483.4 g/ha (Dicots [3]) [%]	activity at 11208.5 g/ha (Dicots [4]) [%]	activity at 11208.5 g/ha (Monocots [5]) [%]	activity at 2241.7 g/ha (Monocots [5]) [%]	activity at 4483.4 g/ha (Monocots [5]) [%]	activity at 11208.5 g/ha (Dicots [6]) [%]
N#Cc1ccc(Oc2ccc(C(F)(F)F)cc2C#N)cc1 [Example 5]	70	42	44	59	41	47	50	77	25	48	11	65
N#Cc1cc(C(F)(F)F)ccc1Oc1ccc(Cl)c(Cl)c1 [Example 7]	0	56	66	55	64	65	41	0	40	36	36	77
N#Cc1cc(C(F)(F)F)ccc1Oc1ccc(Br)cc1 [Example 4, 2-cyano-α, α, α-trifluoro-p-tolyl-4-bromophenyl ether]	5	51	67	50	56	34	37	0	22	34	34	85
N#Cc1cc(C(F)(F)F)ccc1Oc1ccc(Cl)cc1 [Example 3, 2-cyano-α,α,α-trifluoro-p-tolyl-4-chlorophenylether]	10	65	59	50	38	61	40	10	17	27	9	75
N#Cc1cc(C(F)(F)F)ccc1Oc1ccc(C(F)(F)F)cc1 [Example 6, 2-cyano-α, α, α-trifluoro-p-tolyl-α,α,α-trifluoro-p-tolyl ether]	0	34	–	49	–	5	–	10	70	34	–	75
N#Cc1cc(Cl)ccc1Oc1ccc([N+](=O)[O-])cc1 [Example 2]	81	–	49	–	64	–	55	95	95	–	44	100
N#Cc1cc(F)ccc1Oc1ccc([N+](=O)[O-])cc1 [Example 1, 2-cyano-4-fluoro-4'-nitrodiphenyl ether]	77	–	47	–	58	–	51	77	95	–	44	100
